Results from patent US9937129B2, “Materials and methods for delivering compositions to selected tissues” (The Regents of the University of California, priority 2007, dated 2018).

Assays:
[1] = cited from earlier work
[2] = in vivo; cited from earlier work
[3] = Spontaneous adsorption and concentration of bevacizumab in porous SiO2; format: physicochemical; conditions: 0.125 mg/mL solution
From the text: The affinity of a porous Si particle for a particular molecule can be controlled with surface chemistry. The surface of oxidized porous Si has a point of zero charge at a pH of around 2, and so it presents a negatively charged surface to most aqueous solutions of interest. At the appropriate pH, porous SiO2 spontaneously adsorbs positively charged proteins such as serum albumin, fibrinogen, protein A, immunoglobulin G (IgG), or horseradish peroxidase, concentrating them in the process. For example, a 0.125 mg/mL solution of the monoclonal antibody bevacizumab (trade name Avastin, an anti-cancer drug) spontaneously concentrates in suitably prepared porous SiO2 by a factor of >100.

With bevacizumab [Avastin] as the substance, how does the IC50 [1] read?
Its IC50 is 0.022 µg/mL.

And the Therapeutically relevant dose ([1]; intraocular)?
Its Therapeutically relevant dose is > 22 ng/mL.

What about the “Vitreous half-life of free drug” value [2] of the same substance?
Its value is 120 h.

And the “Concentration factor in suitably prepared porous SiO2” value [3]?
Its value is > 100 factor.
